The record followed here is US4335127A, “Piperidinylalkyl quinazoline compounds, composition and method of use” (Janssen Pharmaceutica, N.V., priority 1979, dated 1982).

The subject of assay [1] is lesions in the glandular area of the stomach and distension of the stomach induced by compound 48/80 in rats. The experiment in a line: Gastric lesion test: lesions induced by compound 48/80 (Test 2). The format is in vivo, rat (male, Wistar inbred strain). Particulars: oral, 2 hours before compound 48/80 (1 mg/kg i.v.); stomachs inspected 4 hours after. How it is done: (§1) The shock, followed by dead, can be avoided if the rats are pretreated with a classical H 1 antagonist.
(§2) Male rats of a Wistar inbred strain, weighing 220-250 g, are starved overnight, water being available ad libitum. The test compounds are administered orally as a solution or as a suspension in aqueous medium. A control rat and a "blank" rat receive the test compound. One hour later 5-[4-(diphenylmethyl)-1-piperazinylmethyl]-1-methyl-1H-benzimidazole-2-methanol is administered subcutaneously to all rats at the dose of 2.5 mg/kg. […] Five minutes after the injection the intensity of purple-blue coloration (cyanosis) of the extremities is scored as 0 (absent), +(moderate) or ++(intense). Four hours after the intravenous injection of compound 48/80 the rats are decapitated and the stomachs are removed. Subsequently the stomachs are inspected for distension and contents (blood, fluid, food) and thoroughly rinsed. The macroscopic lesions are scored from 0 to + ++, 0 corresponding to complete absence of visible lesions and the highest score corresponding to reddish rough patches covering more than half the glandular area.

The test system of assay [2] is Caudal Artery of the Rat (effect of serotonin). The experiment in a line: Antagonistic Activity on the Effect of Serotonin on the Caudal Artery of the Rat (Test 1). Particulars: serotonin 40 ng/ml; 5 minutes after adding the drug; rat caudal artery strips. How it is done: Caudal arteries from fasted male rats (210-235 g) are used in the test. Two helical strips having a length of 5-6 cm and a width of 2 mm are obtained from each artery and mounted vertically in a 100 ml organ bath containing an oxygenated Krebs-Henseleit solution. Submaximal contractions of the arterial strips are produced by adding single doses of serotonin (40 ng/ml) to the organ bath for 2 minutes with each time an interval of 10 minutes. The amplitude of the contraction is measured before and 5 minutes after adding the drug. After washing out, the agonist is added again three times in order to see whether the contraction is restored and normalized. […] In this connection the ED50 -values are the minimal concentrations of the concerned drugs which reduce the amplitude of the contraction to at least 50% of its normal value.

The subject of assay [3] is cyanosis of ears and extremities induced by compound 48/80 in rats. The experiment in a line: Cyanosis of ears and extremities induced by compound 48/80 (Test 2). The assay is classed as in vivo, rat (male, Wistar inbred strain). The following applies: Rattus norvegicus, po, 5 min; read-out: Cyanosis ED50 (dose at which cyanosis of ears and extremities is completely absent in 50% of the test rats). How it is done: as §1, §2

The term ED50 denotes the dose that gives a 50% effect, or the effect in half of the subjects. As to `O=c1[nH]c2ccccc2c(=O)n1CCN1CCC(C2(c3ccc(F)cc3)OCCO2)CC1`, the “G. lesion ED50 (dose at which distension of the stomach and lesions in the glandular area are completely absent in 50% of the test rats)” value in assay [1] was determined as 0.31 mg/kg. Further, the “Caudal artery ED50 (minimal concentration which reduces the amplitude of the serotonin-induced contraction to at least 50% of its normal value)” value in assay [2] was 11 ng/mL. For the same compound, the ED50 in assay [3] was 0.16 mg/kg.
Taken in the same sequence, the figures for `O=C(c1ccc(F)cc1)C1CCN(CCn2c(=O)[nH]c3cc(F)ccc3c2=O)CC1` [7-fluoro-3-[2-[4-(4-fluorobenzoyl)-1-piperidinyl]ethyl]-2,4(1H,3H)-quinazolinedione] were 1.25 mg/kg, 0.7 ng/mL and 0.16 mg/kg.
With `COc1ccc(C(=O)C2CCN(CCn3c(=O)[nH]c4ccccc4c3=O)CC2)cc1`, the “Caudal artery ED50 (minimal concentration which reduces the amplitude of the serotonin-induced contraction to at least 50% of its normal value)” value in assay [2] was determined as 2.5 ng/mL.
Turning to `Cc1nc2ccccc2c(=O)n1CCN1CCC(C(=O)c2ccc(F)cc2)CC1` [3-[2-[4-(4-fluorobenzoyl)-1-piperidinyl]ethyl]-2-methyl-4(3H)-quinazolinone], in assay [1], the “G. lesion ED50 (dose at which distension of the stomach and lesions in the glandular area are completely absent in 50% of the test rats)” value was 0.16 mg/kg. In addition, the “Caudal artery ED50 (minimal concentration which reduces the amplitude of the serotonin-induced contraction to at least 50% of its normal value)” value in assay [2] was found to be 0.6 ng/mL. Besides, the median effective dose (ED50) in assay [3] was determined as 0.16 mg/kg.
Regarding `O=C(c1ccc(F)cc1)C1CCN(CCN2C(=O)Nc3ccccc3C2c2ccccc2)CC1` (stereo not drawn) [drawing 34: R^6=C6H5, Alk=(CH2)2, Ar=4-FC6H4, 3-[2-[4-(4-fluorobenzoyl)-1-piperidinyl]ethyl]-3,4-dihydro-4-phenyl-2(1H)-quinazolinone], the “G. lesion ED50 (dose at which distension of the stomach and lesions in the glandular area are completely absent in 50% of the test rats)” value in assay [1] is 0.08 mg/kg. Further, the “Caudal artery ED50 (minimal concentration which reduces the amplitude of the serotonin-induced contraction to at least 50% of its normal value)” value in assay [2] came out at 0.6 ng/mL. Besides, the ED50 in assay [3] was 0.08 mg/kg.
As for `O=C(c1ccc(F)cc1)C1CCN(CCCn2c(=S)[nH]c3ccccc3c2=O)CC1` [3-[3-[4-(4-fluorobenzoyl)-1-piperidinyl]propyl]-2,3-dihydro-2-thioxo-4(1H)-quinazolinone], the “G. lesion ED50 (dose at which distension of the stomach and lesions in the glandular area are completely absent in 50% of the test rats)” value in assay [1] is reported as 2.5 mg/kg. In assay [2], the “Caudal artery ED50 (minimal concentration which reduces the amplitude of the serotonin-induced contraction to at least 50% of its normal value)” value was determined as 2 ng/mL. Also, in assay [3], the ED50 was 0.63 mg/kg.
For `O=C(c1ccc(F)cc1)C1CCN(CCCn2c(=O)[nH]c3ccccc3c2=O)CC1`, the “G. lesion ED50 (dose at which distension of the stomach and lesions in the glandular area are completely absent in 50% of the test rats)” value in assay [1] was found to be 2.5 mg/kg. Besides, the “Caudal artery ED50 (minimal concentration which reduces the amplitude of the serotonin-induced contraction to at least 50% of its normal value)” value in assay [2] worked out at 1.25 ng/mL.
For `O=C(c1ccc(F)cc1)C1CCN(CCn2c(=S)[nH]c3ccccc3c2=O)CC1` [3-[2-[4-(4-fluorobenzoyl)-1-piperidinyl]ethyl]-2,3-dihydro-2-thioxo-4(1H)-quinazolinone], the “G. lesion ED50 (dose at which distension of the stomach and lesions in the glandular area are completely absent in 50% of the test rats)” value in assay [1] is given as 0.08 mg/kg. The “Caudal artery ED50 (minimal concentration which reduces the amplitude of the serotonin-induced contraction to at least 50% of its normal value)” value in assay [2] is 0.6 ng/mL. For the same compound, in assay [3], the ED50 came out at 0.04 mg/kg.
`O=C(c1ccc(F)cc1)C1CCN(CCN2CNc3ccccc3C2=O)CC1` [3-[2-[4-(4-fluorobenzoyl)-1-piperidinyl]ethyl]-2,3-dihydro-4(1H)-quinazolinone]: the “G. lesion ED50 (dose at which distension of the stomach and lesions in the glandular area are completely absent in 50% of the test rats)” value in assay [1] is on record as not below 2.5 mg/kg. In addition, the “Caudal artery ED50 (minimal concentration which reduces the amplitude of the serotonin-induced contraction to at least 50% of its normal value)” value in assay [2] turned out to be 5 ng/mL.
On to `O=C1NC(CCN2CCC(C(=O)c3ccc(F)cc3)CC2)Nc2ccccc21` (stereo not drawn) [2-[2-[4-(4-fluorobenzoyl)-1-piperidinyl]ethyl]-2,3-dihydro-4(1H)-quinazolinone], for which the “G. lesion ED50 (dose at which distension of the stomach and lesions in the glandular area are completely absent in 50% of the test rats)” value in assay [1] came out at 2.5 mg/kg. In addition, the “Caudal artery ED50 (minimal concentration which reduces the amplitude of the serotonin-induced contraction to at least 50% of its normal value)” value in assay [2] is 0.7 ng/mL. In addition, in assay [3], the ED50 came out at 1.25 mg/kg.
Take `O=C(c1ccc(Cl)cc1)C1CCN(CCn2c(=O)[nH]c3ccccc3c2=O)CC1`: in assay [2], the “Caudal artery ED50 (minimal concentration which reduces the amplitude of the serotonin-induced contraction to at least 50% of its normal value)” value is 2.5 ng/mL.
Turning to `O=C(c1ccc(F)cc1)C1CCN(CCn2c(=O)[nH]c3ccccc3c2=O)CC1` [3-[2-[4-(4-fluorobenzoyl)-1-piperidinyl]ethyl]-2,4-(1H,3H)-quinazolinedione], the “G. lesion ED50 (dose at which distension of the stomach and lesions in the glandular area are completely absent in 50% of the test rats)” value in assay [1] is given as 0.16 mg/kg. In addition, the “Caudal artery ED50 (minimal concentration which reduces the amplitude of the serotonin-induced contraction to at least 50% of its normal value)” value in assay [2] is 0.7 ng/mL. Further, the ED50 in assay [3] stood at 0.08 mg/kg.
Turning to `O=C(c1ccc(F)cc1)C1CCN(CCN2C(=O)Nc3ccc(Cl)cc3C2c2ccccc2)CC1` (stereo not drawn) [6-chloro-3-[2-[4-(4-fluorobenzoyl)-1-piperidinyl]ethyl]-3,4-dihydro-4-phenyl-2(1H)-quinazolinone], the “G. lesion ED50 (dose at which distension of the stomach and lesions in the glandular area are completely absent in 50% of the test rats)” value in assay [1] was 0.63 mg/kg. Also, the ED50 in assay [3] stood at 0.63 mg/kg.
In the case of `O=C(O)/C=C/C(=O)O.O=C(c1ccc(F)cc1)C1CCN(CCCn2cnc3ccccc3c2=O)CC1` [3-[3-[4-(4-fluorobenzoyl)-1-piperidinyl]propyl]-4(3H)-quinazolinone (E)-2-butenedioate (1:1)], the “G. lesion ED50 (dose at which distension of the stomach and lesions in the glandular area are completely absent in 50% of the test rats)” value in assay [1] was 2.5 mg/kg. In addition, the “Caudal artery ED50 (minimal concentration which reduces the amplitude of the serotonin-induced contraction to at least 50% of its normal value)” value in assay [2] was 5 ng/mL.
Taken in the same sequence, the figures for `O=C(O)/C=C/C(=O)O.O=C(c1ccc(F)cc1)C1CCN(CCCN2CNc3ccccc3C2=O)CC1` [3-[3-[4-(4-fluorobenzoyl)-1-piperidinyl]propyl]-2,3-dihydro-4-(1H)-quinazolinone (E)-2-butenedioate (1:1)] were not below 2.5 mg/kg and 10 ng/mL.
In the case of `Cc1ccc2[nH]c(=O)n(CCN3CCC(C(=O)c4ccc(F)cc4)CC3)c(=O)c2c1`, the “G. lesion ED50 (dose at which distension of the stomach and lesions in the glandular area are completely absent in 50% of the test rats)” value in assay [1] was 2.5 mg/kg. Moreover, the “Caudal artery ED50 (minimal concentration which reduces the amplitude of the serotonin-induced contraction to at least 50% of its normal value)” value in assay [2] came out at 1.3 ng/mL. Further, the ED50 in assay [3] turned out to be 0.63 mg/kg.
Taken in the same sequence, the figures for `O=C(c1ccc(F)cc1)C1CCN(CCn2cnc3ccccc3c2=O)CC1` [3-[2-[4-(4-fluorobenzoyl)-1-piperidinyl]ethyl]-4(3H)-quinazolinone] were 0.31 mg/kg, 0.6 ng/mL and 0.31 mg/kg.
Taken in the same sequence, the figures for `O=C(c1ccc(F)cc1)C1CCN(CCn2c(=O)[nH]c3cc(Cl)ccc3c2=O)CC1` were 1.25 mg/kg, 2 ng/mL and 1.25 mg/kg.
For `Cn1c(=O)n(CCN2CCC(C(=O)c3ccc(F)cc3)CC2)c(=O)c2ccccc21`, in that order: 1.25 mg/kg, 0.7 ng/mL and 0.16 mg/kg.
Take `O=c1[nH]c2ccccc2c(=O)n1CCN1CCC(C(O)c2ccc(F)cc2)CC1` (stereo not drawn) [3-[2-[4-[(4-fluorophenyl)hydroxymethyl]-1-piperidinyl]ethyl]-2,4(1H,3H)-quinazolinedione]: the “G. lesion ED50 (dose at which distension of the stomach and lesions in the glandular area are completely absent in 50% of the test rats)” value in assay [1] is 1.25 mg/kg. Further, in assay [2], the “Caudal artery ED50 (minimal concentration which reduces the amplitude of the serotonin-induced contraction to at least 50% of its normal value)” value is 20 ng/mL. In addition, in assay [3], the ED50 came to 1.25 mg/kg.
Regarding `COc1ccc2c(=O)n(CCN3CCC(C(=O)c4ccc(F)cc4)CC3)c(=O)[nH]c2c1` [3-[2-[4-(4-fluorobenzoyl)-1-piperidinyl]ethyl]-7-methoxy-2,4(1H,3H)-quinazolinedione], the “G. lesion ED50 (dose at which distension of the stomach and lesions in the glandular area are completely absent in 50% of the test rats)” value in assay [1] came to 0.31 mg/kg. Further, the “Caudal artery ED50 (minimal concentration which reduces the amplitude of the serotonin-induced contraction to at least 50% of its normal value)” value in assay [2] is 0.7 ng/mL. Besides, the 50% effective dose (ED50) in assay [3] was found to be 0.16 mg/kg.
Taken in the same sequence, the figures for `Nc1cc(F)ccc1C(=O)C1CCN(CCn2c(=O)[nH]c3ccccc3c2=O)CC1` [3-[2-[4-(2-amino-4-fluorobenzoyl)-1-piperidinyl]ethyl]-2,4(1H,3H)-quinazolinedione] were 1.25 mg/kg, 0.6 ng/mL and 0.16 mg/kg.
